In the experiment the target is T1, POLγA:A467T (Homo sapiens, UniProt P54098, A467T).
T1 sequence (P54098 1-1239 A467T): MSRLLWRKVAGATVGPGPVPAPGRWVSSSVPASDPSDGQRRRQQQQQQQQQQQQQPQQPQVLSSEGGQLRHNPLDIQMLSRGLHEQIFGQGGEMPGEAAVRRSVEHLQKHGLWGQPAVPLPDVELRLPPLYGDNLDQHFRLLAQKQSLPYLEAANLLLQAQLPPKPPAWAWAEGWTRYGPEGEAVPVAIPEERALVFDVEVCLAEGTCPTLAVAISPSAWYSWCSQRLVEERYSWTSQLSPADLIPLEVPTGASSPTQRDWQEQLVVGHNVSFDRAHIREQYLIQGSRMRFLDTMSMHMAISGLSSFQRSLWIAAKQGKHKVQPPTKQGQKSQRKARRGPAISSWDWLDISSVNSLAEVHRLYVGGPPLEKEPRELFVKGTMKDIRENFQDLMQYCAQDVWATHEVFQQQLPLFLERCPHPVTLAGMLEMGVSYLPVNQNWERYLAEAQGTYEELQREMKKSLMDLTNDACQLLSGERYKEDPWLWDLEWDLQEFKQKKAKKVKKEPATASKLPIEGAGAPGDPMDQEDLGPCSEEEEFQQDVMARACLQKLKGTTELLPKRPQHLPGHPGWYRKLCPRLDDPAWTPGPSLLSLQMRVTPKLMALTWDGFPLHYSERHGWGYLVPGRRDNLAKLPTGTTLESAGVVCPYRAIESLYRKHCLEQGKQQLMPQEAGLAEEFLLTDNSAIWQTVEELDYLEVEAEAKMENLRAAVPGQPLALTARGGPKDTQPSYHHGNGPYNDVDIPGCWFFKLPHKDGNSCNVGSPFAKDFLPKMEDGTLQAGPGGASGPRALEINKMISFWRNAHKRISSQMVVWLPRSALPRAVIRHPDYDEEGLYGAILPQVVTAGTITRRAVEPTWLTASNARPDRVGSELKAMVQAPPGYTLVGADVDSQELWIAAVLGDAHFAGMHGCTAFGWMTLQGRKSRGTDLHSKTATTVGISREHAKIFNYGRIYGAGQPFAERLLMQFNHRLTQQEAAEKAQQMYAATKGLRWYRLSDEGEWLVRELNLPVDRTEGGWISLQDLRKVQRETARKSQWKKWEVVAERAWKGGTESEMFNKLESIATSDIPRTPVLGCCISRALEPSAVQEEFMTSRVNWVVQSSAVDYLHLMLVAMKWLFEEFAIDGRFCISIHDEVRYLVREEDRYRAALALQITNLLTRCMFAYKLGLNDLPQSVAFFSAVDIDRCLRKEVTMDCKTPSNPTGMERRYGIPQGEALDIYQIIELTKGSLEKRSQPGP
T1 sequence (Q9UHN1 1-485 partner): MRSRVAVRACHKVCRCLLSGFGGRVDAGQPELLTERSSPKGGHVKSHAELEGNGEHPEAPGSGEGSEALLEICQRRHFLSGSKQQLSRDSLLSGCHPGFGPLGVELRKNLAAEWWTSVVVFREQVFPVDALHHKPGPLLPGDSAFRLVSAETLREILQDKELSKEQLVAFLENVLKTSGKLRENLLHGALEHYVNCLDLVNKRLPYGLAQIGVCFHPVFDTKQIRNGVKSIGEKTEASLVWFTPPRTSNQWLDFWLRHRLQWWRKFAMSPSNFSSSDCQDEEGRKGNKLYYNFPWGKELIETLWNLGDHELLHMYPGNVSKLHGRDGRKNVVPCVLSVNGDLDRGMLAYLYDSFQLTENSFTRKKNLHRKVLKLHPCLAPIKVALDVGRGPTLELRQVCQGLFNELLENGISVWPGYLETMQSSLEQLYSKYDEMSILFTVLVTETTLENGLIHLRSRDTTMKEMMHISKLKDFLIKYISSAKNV
Kind of experiment: DNA polymerization assay, POLγA:A467T mutant. The format is biochemical. The following applies: stimulation of polymerase activity, primed M13mp18 ssDNA, 37° C. 2 hours; read-out: A467T AC50.
The term AC50 denotes the concentration giving half of the maximal activity seen. In the case of `Cc1cc(S(=O)(=O)Nc2ccc(F)c(-c3nccs3)c2)c(C)cc1Cl` [Example 63, 4-chloro-N-(4-fluoro-3-(thiazol-2-yl)phenyl)-2,5-dimethylbenzenesulfonamide], the AC50 was > 100 µM.

Consider `Cc1cc(S(=O)(=O)Nc2cccc(C(=O)N(C)C(C)CO)c2)c(C)cc1Cl` (single isomer, unassigned) [Example 15, 3-((4-chloro-2,5-dimethylphenyl)sulfonamido)-N-(1-hydroxypropan-2-yl)-N-methylbenzamide], for which the AC50 was > 100 µM.

As for `Cc1cc(S(=O)(=O)N(C)c2cccc(-c3nccs3)c2)c(C)cc1Cl` [Example 22, 4-chloro-N,2,5-trimethyl-N-(3-(thiazol-2-yl)phenyl)benzenesulfonamide], the AC50 was > 100 µM.

Take `Cc1cc(S(=O)(=O)Nc2csc(-n3cccn3)n2)c(C)cc1Cl` [Example 178, N-(2-(1H-pyrazol-1-yl)thiazol-4-yl)-4-chloro-2,5-dimethylbenzenesulfonamide]: the AC50 was > 100 µM.

On to `Cc1cc(S(=O)(=O)Nc2cc(C(=O)N3CCC[C@H]3C)ccc2F)c(C)cc1Cl` [Example 50, (R)-4-chloro-N-(2-fluoro-5-(2-methylpyrrolidine-1-carbonyl)phenyl)-2,5-dimethylbenzenesulfonamide], for which the AC50 is > 100 µM.

Consider `Cc1cc(S(=O)(=O)Nc2cccc(C(=O)N3CCCC34CC4)c2)c(C)cc1Cl` [Example 162, N-(3-(4-azaspiro[2.4]heptane-4-carbonyl)phenyl)-4-chloro-2,5-dimethylbenzenesulfonamide], for which the AC50 turned out to be 91 µM.

Turning to `Cc1cc(S(=O)(=O)Nc2csc(C(=O)N(C)CC(N)=O)n2)c(C)cc1Cl` [Example 172, N-(2-amino-2-oxoethyl)-4-((4-chloro-2,5-dimethylphenyl)sulfonamido)-N-methylthiazole-2-carboxamide], the AC50 is > 10 µM.

`Cc1ccc(C)c(S(=O)(=O)Nc2cccc(C(N)=O)c2)c1` [Example 27, 3-((2,5-dimethylphenyl)sulfonamido)benzamide]: the AC50 was > 100 µM.

Consider `Cc1cc(S(=O)(=O)N[C@H]2CCCN(c3ccccc3)C2)c(C)cc1Cl` [Example 161, (S)-4-chloro-2,5-dimethyl-N-(1-phenylpiperidin-3-yl)benzenesulfonamide], for which the AC50 is > 100 µM.

For `Cc1cc(S(=O)(=O)Nc2ccc(F)c(C(=O)N3CCC[C@H]3C)c2)c(C)cc1Cl` [Example 49, (R)-4-chloro-N-(4-fluoro-3-(2-methylpyrrolidine-1-carbonyl)phenyl)-2,5-dimethylbenzenesulfonamide], the AC50 is > 100 µM.

Turning to `Cc1ccc(C)c(S(=O)(=O)Nc2cccc(C(=O)N(C)CC3CC3)c2)c1` [Example 33, N-(cyclopropylmethyl)-3-((2,5-dimethylphenyl)sulfonamido)-N-methylbenzamide], the AC50 is > 100 µM.

As for `Cc1cc(S(=O)(=O)Nc2csc(-c3cnn(C)c3)n2)c(C)cc1Cl` [Example 183, 4-chloro-2,5-dimethyl-N-(2-(1-methyl-1H-pyrazol-4-yl)thiazol-4-yl)benzenesulfonamide], the AC50 came to 6 µM.

As to `Cc1cc(S(=O)(=O)Nc2cc(F)cc(-c3nccs3)c2)c(C)cc1Cl` [Example 62, 4-chloro-N-(3-fluoro-5-(thiazol-2-yl)phenyl)-2,5-dimethylbenzenesulfonamide], the AC50 is > 100 µM.

On to `Cc1ccc(C)c(S(=O)(=O)Nc2cccc(C(=O)N3CCOCC3)c2)c1` [Example 29, 2,5-dimethyl-N-(3-(morpholine-4-carbonyl)phenyl)benzenesulfonamide], for which the AC50 was > 100 µM.

With `Cc1cc(S(=O)(=O)Nc2cccc(C(=O)N3CCN(C)CC3)c2)c(C)cc1Cl` [Example 52, 4-chloro-2,5-dimethyl-N-(3-(4-methylpiperazine-1-carbonyl)phenyl)benzenesulfonamide], the AC50 was > 100 µM.

Regarding `Cc1cc(S(=O)(=O)N[C@H]2CCN(c3ccccc3)C2)c(C)cc1Cl` [Example 158, (S)-4-chloro-2,5-dimethyl-N-(1-phenylpyrrolidin-3-yl)benzenesulfonamide], the AC50 was > 100 µM.

As for `Cc1nc2cc(NS(=O)(=O)c3cc(C)c(Cl)cc3C)ccc2s1` [Example 71, 4-chloro-2,5-dimethyl-N-(2-methylbenzo[d]thiazol-5-yl)benzenesulfonamide], the AC50 was > 100 µM.

As for `Cc1ccc(C)c(S(=O)(=O)Nc2ccc(C(=O)N[C@@H](C)C3CC3)cc2)c1` [Example 39, (S)-N-(1-cyclopropylethyl)-4-((2,5-dimethylphenyl)sulfonamido)benzamide], the AC50 is > 100 µM.

As for `Cc1cc(S(=O)(=O)Nc2cn(Cc3ccccc3)cn2)c(C)cc1Cl` [Example 168, N-(1-benzyl-1H-imidazol-4-yl)-4-chloro-2,5-dimethylbenzenesulfonamide], the AC50 was > 100 µM.

Take `Cc1cnc(-c2cccc(NS(=O)(=O)c3cc(C)c(Cl)cc3C)c2)s1` [Example 21, 4-chloro-2,5-dimethyl-N-(3-(5-methylthiazol-2-yl)phenyl)benzenesulfonamide]: the half-maximal activity concentration (AC50) is 3 µM.

As for `COc1cccc(-c2nc(NS(=O)(=O)c3cc(C)c(Cl)cc3C)cs2)c1` [Example 165, 4-chloro-N-(2-(3-methoxyphenyl)thiazol-4-yl)-2,5-dimethylbenzenesulfonamide], the AC50 amounted to 1 µM.

`Cc1ccc(C)c(S(=O)(=O)Nc2cccc(-c3nccs3)c2)c1` [Example 60]: the AC50 turned out to be 5 µM.

As for `Cc1cc(S(=O)(=O)Nc2cccc(C(=O)N3CCC[C@H]3C)c2F)c(C)cc1Cl` [Example 57, (R)-4-chloro-N-(2-fluoro-3-(2-methylpyrrolidine-1-carbonyl)phenyl)-2,5-dimethylbenzenesulfonamide], the AC50 was > 100 µM.

With `Cc1cc(S(=O)(=O)Nc2csc(C(=O)N(CC(N)=O)C3CCCC3)n2)c(C)cc1Cl` [Example 177, N-(2-amino-2-oxoethyl)-4-((4-chloro-2,5-dimethylphenyl)sulfonamido)-N-cyclopentylthiazole-2-carboxamide], the AC50 was > 100 µM.

Turning to `CC[C@@H]1CCCN1C(=O)c1cccc(NS(=O)(=O)c2cc(C)c(Cl)cc2C)c1` [Example 65, (R)-4-chloro-N-(3-(2-ethylpyrrolidine-1-carbonyl)phenyl)-2,5-dimethylbenzenesulfonamide], the AC50 came to 15 µM.

As to `Cc1ccccc1S(=O)(=O)Nc1cccc(C(=O)N2CCOC[C@@H]2C)c1` [Example 23, (S)-2-methyl-N-(3-(3-methylmorpholine-4-carbonyl)phenyl)benzenesulfonamide], the AC50 was > 100 µM.

As to `Cc1cc(S(=O)(=O)Nc2cccc(-c3cc(C4CC4)[nH]n3)c2)c(C)cc1Cl` [Example 64, 4-chloro-N-(3-(5-cyclopropyl-1H-pyrazol-3-yl)phenyl)-2,5-dimethylbenzenesulfonamide], the AC50 worked out at 8 µM.

Take `Cc1cc(S(=O)(=O)Nc2cccc(C(=O)N3CCN(C)C[C@H]3C)c2)c(C)cc1Cl` [Example 54, (R)-4-chloro-N-(3-(2,4-dimethylpiperazine-1-carbonyl)phenyl)-2,5-dimethylbenzenesulfonamide]: the AC50 was > 100 µM.

`Cc1ccc(C)c(S(=O)(=O)Nc2cccc(C(=O)N3CCSCC3C(N)=O)c2)c1` (stereo not drawn) [Example 41, 4-(3-((2,5-dimethylphenyl)sulfonamido)benzoyl) thiomorpholine-3-carboxamide]: the AC50 was > 100 µM.

`Cc1cc(S(=O)(=O)Nc2cccc(C(=O)N3CCC[C@H]3C(C)C)c2)c(C)cc1Cl` [Example 67, (S)-4-chloro-N-(3-(2-isopropylpyrrolidine-1-carbonyl)phenyl)-2,5-dimethylbenzenesulfonamide]: the AC50 was > 100 µM.
